Laboratory results published in patent US20250235418A1, “Butyrate Analogues and Methods of Use for HIF Stabilization and Treatment of Bowel Disease” (THE REGENTS OF THE UNIVERSITY OF COLORADO, A BODY CORPORATE, priority 2022, published 2025).

Key:
HIF-1α in T84 cells = experiment: HIF stabilization by butyrate in T84 cells (HIF-1α target mRNA, HIF-1α protein); assay type: cell-based; conditions: 4 h
Experimental: (C) Quantified densitometry of HIF-1α protein expression in T84 cells treated with 10 mM butyrate with or without 1 mM MCPA for 4 h

HIF1α in T84 cells = experiment: HIF1α immunoblot in T84 cells (MBA vs BA); assay type: cell-based; conditions: T84 cells
Experimental: (A) Structures of butyrate derivatives investigated in initial screen for HIF stabilization. Immunoblot of HIF1a protein levels in Caco-2 cells (B) and T84 cells (C) exposed to veh (HBSS+), […], or 5 mM butyrate derivatives for 6h. (D) Dose response study of HIF1a accumulation in T84 cells treated with decreasing concentrations of MBA and BA for 6 h.
(A) Immunoblots of HIF1a protein over time after exposure of T84 cells to 5 mM BA and MBA. (B) Mesoscale assay of HIF1a protein over time in caco-2 cells treated with 5 mM MBA compared to veh. (C) HIF1a and HIF target (BNIP3) protein in caco-2 cells exposed to veh (HBSS+), […] or 5 mM MBA. Data are presented as mean+S.E.M, *p<0.05, **p<0.01, ***p<0.001.
Endogenous and non-endogenous butyrate derivatives with specifically chosen functional groups at different positions within the small molecule and assess their effects on HIF stabilization (FIG. 21A). To study a small library of butyrate derivatives we employed an electrochemiluminescence based assay to quantify HIF1α levels using the Meso Scale Discovery (HIF1α MSD assay, http://www.mesoscale.com) technology. Similar to the sandwich enzyme-linked immunosorbent assay (ELISA), this technology captures and detects HIF1α protein using two specific antibodies but utilizes electrochemiluminescence-based signal generation and detection. Using lysates from intestinal epithelial cells (IECs) caco-2 and T84 exposed to a physiological relevant concentration of 5 mM butyrate derivatives for 4h, this assay was employed to determine HIF1α protein concentration. A bona-fide and potent PHD2 inhibitor (IOX4) was used to stabilize HIF1α as a positive control. Various butyrate derivatives increased HIF1α relative concentration in both cell lines compared to low signals detected in untreated lysates. […] We decided to focus on this interesting butyrate derivative for further studies.
To elucidate the effectiveness of MBA to stabilize HIF1α over time and possibly shine light on how quickly it can be metabolized in-vitro, time-course studies where performed between BA and MBA, IOX4 was used as a positive control. […] Employing the HIF1α MSD assay, we screened for various timepoints in caco-2 cell lysates exposed to MBA (5 mM). […] BNIP3 is involved in cell survival and is a known HIF1α target that is induced through chemical stabilization of HIF or hypoxia. BNIP3 promoter comprises a functional hypoxia response element (HRE) and can be activated by HIF1α.[5] Parallel to our HIF stabilization time course studies, we wanted to assess the transcriptional activity of the stabilized protein over time.

[1] = system: HIF-1α in murine enteroids; experiment: HIF stabilization in differentiated murine enteroids; assay type: cell-based; conditions: 10 mM butyrate with or without 1 mM MCPA, 4 h
[2] = system: PHD (2-OG accumulation) in T84 IECs; experiment: 2-OG levels in T84 cells as biomarker of PHD inhibition; assay type: cell-based; conditions: 3 h
Experimental: (B) 2-OG concentrations in T84 cells treated with 10 mM butyrate with or without 1 mM MCPA or 30 μM IOX2 for 3 h
The relationship between butyrate and HIF, were examined whether butyrate influences PHD activity by monitoring 2-OG levels. […] In this, we considered such 2-OG accumulation as a metabolic biomarker of PHD inhibition (FIG. 3A).

HIF regulated targets = experiment: intraperitoneal injection in C57BL/6 mice, HIF regulated targets (EPO, GLUT1); assay type: in vivo; conditions: IP, BA 73 mg/kg, MBA 80 mg/kg, 24h
Experimental: Erythropoietin (EPO) is regulated by HIF stabilization. (A) EPO protein in blood serum was assessed by mesoscale assay (n=6-8). qPCR mRNA expression of HIF target mGLUT1 in kidney (B) and colon tissue (C) (n=3-8). Data analyzed by One-way ANOVA with Tukey for post hoc correction and presented as mean±S.E.M of two independent experiments, *p<0.05, **p<0.01, ***p<0.001, ****p<0.0001 […]
At 24 h, mice were sacrificed followed by exsanguination, extraction of right kidney and distal colon for analysis of HIF stabilization and HIF target gene expression. SHBA induces HIF regulated targets in vivo. Erythropoietin (EPO) is regulated by HIF stabilization. (A) EPO protein in blood serum was assessed by mesoscale assay (n=6-8). (B) qPCR mRNA expression of HIF target mGLUT1 in colon tissue (n=3-4). Data are presented as mean±S.E.M of two independent experiments, *p<0.05, **p<0.01.
A typical physiologic response to hypoxia is the increase in red blood cell production. Naturally, HIF is in charge of this response by regulating cell-type specific gene expression that leads to increased levels of the hormone erythropoietin (EPO).[10] […] We lastly explored the in-vivo effects of MBA in mediating induction of genes tightly regulated by HIF. […] After 24h of treatment, they were sacrificed and quickly exsanguinated to measure EPO levels in serum. […] Furthermore, we studied the induction of GLUT1, another classic HIF target responsible for the transport of various monosaccharides. Kidney and colon tissue were analyzed by real-time PCR to compare BA and MBA head-to-head. […] These findings support the ability of MBA to stabilize HIF in-vivo leading to the induction of classic target genes and transcription of a tightly regulated protein EPO.

Structure (SMILES): CCCC(=O)O [Butyrate, Butyric acid]
- HIF stabilization in the presence of MCPA (HIF-1α in T84 cells; 10 mM butyrate with 1 mM MCPA): still stabilized HIF
- HIF-1α protein levels (HIF-1α in T84 cells; 10 mM): increased
- HIF-1α target genes BNIP3, BNIP3L, GLUT1 mRNA (HIF-1α in T84 cells; 10 mM): induction of HIF-1α target genes
- HIF1α stabilization over time (immunoblot) (HIF1α in T84 cells; 5 mM BA and MBA, IOX4 positive control): no longer stabilized at 48h
- dose response of HIF1α accumulation (HIF1α in T84 cells; decreasing concentrations, 6 h): quickly becomes ineffective
- HIF-1α protein expression [1]: increased HIF-1α protein expression
- HIF-1α target gene expression [1]: induced expression of HIF-1α target genes
- 2-OG levels in the presence of MCPA ([2]; 10 mM butyrate with 1 mM MCPA): significantly increased
- 2-OG levels compared to control ([2]; 10 mM butyrate, 30 μM IOX2): significantly increased
- GLUT1 mRNA in colon tissue (HIF regulated targets): significantly increased in colon tissue
- GLUT1 mRNA in kidney (HIF regulated targets): induction of GLUT1 in kidney
